According to patent US9289400B2, “D3 dopamine receptor agonists to treat dyskinesia in parkinson's disease” (priority 2010, dated 2016):
Entries after “also recorded” stand apart in the source; their conditions may differ. Read-outs that look alike come from different tables or passages of the source.

What was measured:
D3 dopamine receptor [1] = target: T1, D3 dopamine receptor (Homo sapiens (Human), UniProt P35462); assay: Adenylyl cyclase inhibition (forskolin-induced cAMP) in AtT-20 cells stably expressing D3; type: cell-based; details: for Adenylyl cyclase inhibition: agonist type: versus full agonist quinpirole
Method: In the second functional assay, the ability of D2-like dopamine receptors to inhibit adenylyl cyclase activity is assessed. The ability of the lead compound to dose-dependently decrease forskolin-induced cAMP levels is measured. The IC50 values for each receptor subtype is determined by fitting the data points using the Hill equation. Previously, the EC50 and IC50 values for dopamine and quinpirole has been determined in these cell lines in both functional assays.
AtT-20 mouse pituitary cells were grown in Ham's F10 medium with 5% FBS, 10% heat-inactivated horse serum, 2 mM glutamine and 50 μg/ml gentamicin (Invitrogen, Carlsbad, Calif.). AtT-20 cells stabling expressing the human D2S, D2L, D3, and D4.2 and receptor were maintained in the above F10 culture media supplemented with 500 μg/ml G418 (Invitrogen). For electrophysiological characterization, cells were plated onto glass coverslips coated with 40 μg/ml poly L-lysine (Sigma-Aldrich). The generation and characterization of the AtT-20 cells stably expressing various human dopamine receptors have been previously reported (Kuzhikandathil & Oxford, 2000, J. Gen. Physiol. 115:697-706; Kuzhikandathil et al., 1998, Mol. Cell. Neurosci. 12:390-402; Kuzhikandathil & Bartoszyk, 2006, Neuropharm. 51:873-884; Westrich & Kuzhikandathil, 2007, Biochim. Biophys. Acta-MCR 1773:1747-1758; Kuzhikandathil et al., 2004, Mol. Cell. Neurosci. 26:144-155; Westrich et al., 2010, Biochem. Pharmacol. 79:897-907).
Cyclic AMP (cAMP) levels were assessed using the cAMP Biotrak Enzymeimmunoassay (EIA) kit (GE Healthcare, Piscataway, N.J., USA) as described previously (Kuzhikandathil & Bartoszyk, 2006, Neuropharm. 51:873-884). The cAMP levels in each treated sample were assayed in triplicate and the entire experiment repeated three independent times.
To compare the functional effects of the new class of D3 receptor agonists, PBZI (Table 2) and ES609 (Table 3) were tested on AtT-20 cells stably expressing human D3, D2S, D2L or D4.2. Functional efficacy was determined by assessing the ability of PBZI and ES609 to inhibit adenylyl cyclase or activate GIRK channels coupled to these “D2-like” dopamine receptors. The EC50 values of PBZI and ES609 for inhibiting adenylyl cyclase and activating GIRK channels were in the range of 0.2 nM to 30 nM for D3 receptors.
Target sequence in this assay (P35462 other isoform, or with tags, fused parts or gaps): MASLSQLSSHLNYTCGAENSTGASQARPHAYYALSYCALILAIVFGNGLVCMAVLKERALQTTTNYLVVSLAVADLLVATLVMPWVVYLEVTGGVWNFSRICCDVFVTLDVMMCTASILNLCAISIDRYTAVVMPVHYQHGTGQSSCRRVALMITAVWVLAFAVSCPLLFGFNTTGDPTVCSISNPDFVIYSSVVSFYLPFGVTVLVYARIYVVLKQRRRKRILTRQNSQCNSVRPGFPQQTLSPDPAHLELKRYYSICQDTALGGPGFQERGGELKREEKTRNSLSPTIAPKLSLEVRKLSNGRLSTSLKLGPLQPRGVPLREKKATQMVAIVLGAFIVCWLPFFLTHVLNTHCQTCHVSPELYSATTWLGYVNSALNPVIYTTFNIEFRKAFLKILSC

D3 dopamine receptor [2] = target: T1, D3 dopamine receptor; details: cited from earlier work
Target sequence in this assay (P35462 whole entry): as the sequence (P35462 other isoform, or with tags, fused parts or gaps) above, with S9G counted along it

c-fos expression = details: in vivo; cited from earlier work
[3] = tested on: intrastriatal 6-OHDA lesioned rats; assay: Levodopa-induced dyskinesia (AIMs score) in intrastriatal 6-OHDA lesioned rats; type: in vivo, rat; details: PBZI 17 mg/kg sc; for effect on levodopa-induced dyskinesia (AIMs score): given 10 minutes before 6 mg/kg levodopa, ES609 20 mg/kg
Method: In particular, rats in which unilateral intrastriatal lesion is induced by injection of 6-OHDA (7 μg) at three different sites in the ventrolateral striatum are used. The coordinates for the three injection sites are, in mm: injection site 1: AP: +1.0; ML: −3.0; DV: −5.0; injection site 2: AP: −0.1; ML: −3.7; DV: −5.0; injection site 3: AP: −1.2; ML: −4.5; DV: −5.0. Anterior-posterior (AP) and mediolateral (ML) coordinates are from bregma. The dorso-ventral (DV) coordinates are from dura. The toothbar location is 0.
Seven and half weeks after the lesion, chronic levodopa treatment (6 mg/kg, single dose per day given with 15 mg/kg benserazide) is initiated. Stepping test and AIMs scores are determined on day 1, 8, 10, 17 and 24 after the initiation of chronic levodopa treatment. […] AIMs are scored using a rating scale based on frequency and severity of the dyskinetic symptoms. It should be noted that the rank order of the various AIMs components in terms of frequency and severity in the rat model is: limb>orolingual=axial>>locomotor. This lesion model has been used to test the effect of PBZI on LID (Example 3).
FIG. 13A illustrates the effect of control, PD128907 (a tolerance inducing D2/D3 agonist) and PBZI (a non tolerance inducing D3/D3 agonist) on the total AIMs score (includes locomotor, axial, limb and orolingual) over time of a day 17 (chronic L-DOPA phase) lesioned animal.

Balb/c mice = assay: Locomotor activity (open field, TruScan) in Balb/c mice
Method: Therefore, three different doses of the lead compound are administered and their effects on locomotor activity are determined. The dosage is determined based on the functional EC50 values and binding affinity of the lead compound from the cell-based assays described above. The compound is administered to Balb/c mice and locomotor activity is monitored using the TruScan Automated Behavioral Monitoring system (Coulborn Instruments).
A total of 12 young adult, male Balb/c mice were obtained form Charles River, Inc. (Wilmington, Mass.), and housed in groups of four in standard cages. The animals were maintained on a 12 hour light/12 hour dark cycle and permitted ad lib access to food and water. Experiments were conducted during the animal's light phase. […] For PD128907, separate groups of Balb/c mice received subcutaneous injections of saline (n=4) or 0.05 or 0.4 mg/kg PD128907 (n=4, for each). Locomotion (‘distance traveled’) scores of drug-injected animals were collapsed across 10-min intervals and for comparison purposes were normalized to saline injected animals (FIG. 12A). The experiment was conducted on three separate occasions.

Water solubility = type: physicochemical
D3 dopamine receptor [4] = target: T1, D3 dopamine receptor; assay: D3 receptor tolerance and SRT: GIRK response to repeated agonist application in AtT-20 cells; type: cell-based; details: 1000 nM PBZI applied simultaneously with 100 nM dopamine
Target sequence in this assay (P35462 other isoform, or with tags, fused parts or gaps): as the sequence (P35462 other isoform, or with tags, fused parts or gaps) above

D1-like receptors = details: cited from earlier work
D3 dopamine receptor [5] = target: T1, D3 dopamine receptor; assay: Current clamp recording of spontaneous action potentials in AtT-20 cells expressing D3; type: cell-based; details: 100 nM dopamine or 300 nM PBZI
Target sequence in this assay (P35462 other isoform, or with tags, fused parts or gaps): as above
Text: Drug solutions were delivered to cells via a multi-barreled micropipette array. The current responses were normalized to the cell capacitance, to account for variation in cell size.

D4.2 = details: Scheideler et al., 1997; cited from earlier work
D2S = D2S (Homo sapiens (Human), UniProt P14416); details: Scheideler et al., 1997; cited from earlier work
monoamine transporter = assay: Monoamine transporter uptake activity; type: cell-based; details: FIG. 23
[6] = AtT-20 cells, D3, read-out: Adenylyl cyclase inhibition EC50
[7] = D3 receptors, range over both compounds and both assays, read-out: EC50 for inhibiting adenylyl cyclase and activating GIRK channels

Sequence of D2S (P14416 other isoform, or with tags, fused parts or gaps): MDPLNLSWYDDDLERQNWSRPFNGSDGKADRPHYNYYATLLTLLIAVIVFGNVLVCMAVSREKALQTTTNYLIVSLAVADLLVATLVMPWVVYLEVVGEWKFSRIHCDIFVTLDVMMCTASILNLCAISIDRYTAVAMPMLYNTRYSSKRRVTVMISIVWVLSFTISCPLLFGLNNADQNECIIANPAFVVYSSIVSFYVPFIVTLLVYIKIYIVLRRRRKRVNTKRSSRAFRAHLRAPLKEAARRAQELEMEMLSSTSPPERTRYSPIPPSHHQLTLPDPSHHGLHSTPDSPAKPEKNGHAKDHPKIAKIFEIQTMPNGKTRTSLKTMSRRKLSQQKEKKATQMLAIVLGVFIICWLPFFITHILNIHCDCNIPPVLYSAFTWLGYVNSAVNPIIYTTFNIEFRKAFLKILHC

CCCN1CC[C@@H]2c3cc(O)ccc3CC[C@@H]21 [PBZI, (3aS,9bR)-3-propyl-1,2,3a,4,5,9b-hexahydrobenzo[e]indol-8-ol]
EC50 (D3 dopamine receptor [1]; [6]): 35 nM
Adenylyl cyclase inhibition Ratio of PBZI to quinpirole response (at 300 nM) (D3 dopamine receptor [1]; D3, 300 nM): 0.97
Adenylyl cyclase inhibition: agonist type (D3 dopamine receptor [1]; D3): full agonists and full
EC50 (D3 dopamine receptor [1]; [7]): 0.2 to 30 nM
Ki (D3 dopamine receptor [2]; D3, Scheideler et al., 1997, read-out: Ki): 27 nM
Ki (D3 dopamine receptor [2]; source not stated, read-out: D3 dopamine receptor binding affinity Ki): 22 nM
c-fos expression in medial prefrontal cortex and shell region of nucleus accumbens (c-fos expression): specific increases in c-fos expression
dyskinesia induced by the compound itself, before levodopa administration ([3]; PD128907 0.1 mg/kg sc): did not induce dyskinesia
effect on levodopa-induced dyskinesia (AIMs score) [3]: reduces AIM scores; also recorded: significantly reduced the AIM score; also recorded: delayed the onset of levodopa induced dyskinesia; also recorded: delayed and reduced the dyskinesia induced by levodopa; also recorded: improve levodopa-induced dyskinesia
effect on locomotion (Balb/c mice; 1 mg/kg sc): no significant effect
reduction of locomotion (Balb/c mice; 10 mg/kg sc, within 20-min): approximately 90%
duration of hypoactivity post-injection (Balb/c mice; PBZI 10 mg/kg sc, PD128907 0.4 mg/kg sc): 40 min
locomotor response (Balb/c mice; sc, PBZI 10 mg/kg, PD128907 0.05-0.4 mg/kg, normalized to saline): only elicit hypoactivity; also recorded: monophasic hypoactive locomotor response; also recorded: dose-dependent and monophasic inhibition of locomotion
water solubility (Water solubility): water soluble
competition with dopamine to block development of tolerance and SRT (D3 dopamine receptor [4]): able to compete effectively with dopamine; also recorded: blocked the development of tolerance and SRT
Binding at D1-like receptors and a panel of other neurotransmitter receptors, ion channels and transporters (D1-like receptors): negligible
inhibition of spontaneous action potentials on repeated application (D3 dopamine receptor [5]): inhibited spontaneous action potentials during the first application and subsequent applications; also recorded: inhibited the spontaneous action potentials during the first and second treatment
Ki (D4.2): 280 nM
Ki (D2S): 1800 nM

CC(N)CCc1ccccc1Cl (centres unmarked) [ES609]
EC50 (D3 dopamine receptor [1]; [6]): 0.15 nM
Adenylyl cyclase inhibition Ratio of ES609 to quinpirole response (at 300 nM) (D3 dopamine receptor [1]; D3, 300 nM): 0.71
Adenylyl cyclase inhibition: agonist type (D3 dopamine receptor [1]; D3): full agonists
Adenylyl cyclase inhibition: agonist type (D3 dopamine receptor [1]; D3, listed as ES0609): Full
EC50 (D3 dopamine receptor [1]; [7]): 0.2 to 30 nM
monoamine transporter uptake activity (monoamine transporter): inhibits monoamine transporter uptake activity
effect on levodopa-induced dyskinesia (AIMs score) [3]: improve levodopa-induced dyskinesia
